From patent publication US20100240093A1, “Isolated Staphylococcus Pseudolugdunensis” (priority 2006, published 2010)

Tests used:
[1] = system: isolate B006; experiment: Disc diffusion antimicrobial susceptibility testing; assay type: cell-based, Staphylococcus pseudolugdunensis; also: key: R—resistant; S—susceptible
Experimental: (§1) In vitro antimicrobial susceptibility testing for amoxicillin-clavulanate, cefazolin, clindamycin, erythromycin, gentamicin, levofloxacin, minocycline, penicillin, rifampin, trimethoprim/sulfamethoxazole (SXT) and vancomycin was determined by a disc diffusion method in accordance with Clinical and Laboratory Standards Institute guidelines (CLSI Performance standards for antimicrobial disk susceptibility tests; Approved standard, 9th ed. (2006) Clinical and Laboratory Standards Institute, Wayne, Pa.).

[2] = system: isolate B060; experiment: as above; assay type: cell-based, Staphylococcus pseudolugdunensis; also: key: R—resistant; S—susceptible
Experimental: as §1

[3] = system: isolate B230; experiment: as above; assay type: cell-based, Staphylococcus pseudolugdunensis; also: key: R—resistant; S—susceptible
Experimental: as §1

[4] = system: isolate B277; experiment: as above; assay type: cell-based, Staphylococcus pseudolugdunensis; conditions: isolate 8277; also: key: R—resistant; S—susceptible
Experimental: as §1

[5] = system: isolate B287; experiment: as above; assay type: cell-based, Staphylococcus pseudolugdunensis; conditions: isolate 8287; also: key: R—resistant; S—susceptible
Experimental: as §1

[6] = system: isolate B292; experiment: as above; assay type: cell-based, Staphylococcus pseudolugdunensis; conditions: isolate 13292; also: key: R—resistant; S—susceptible
Experimental: as §1

[7] = system: isolate B333; experiment: as above; assay type: cell-based, Staphylococcus pseudolugdunensis; also: key: R—resistant; S—susceptible
Experimental: as §1

[8] = system: isolate B334; experiment: as above; assay type: cell-based, Staphylococcus pseudolugdunensis; also: key: R—resistant; S—susceptible
Experimental: as §1

[9] = system: isolate B354; experiment: as above; assay type: cell-based, Staphylococcus pseudolugdunensis; also: key: R—resistant; S—susceptible
Experimental: as §1

[10] = system: isolate B715; experiment: as above; assay type: cell-based, Staphylococcus pseudolugdunensis; conditions: isolate 13715; also: key: R—resistant; S—susceptible
Experimental: as §1

[11] = system: isolate B739; experiment: as above; assay type: cell-based, Staphylococcus pseudolugdunensis; conditions: isolate 8739; also: key: R—resistant; S—susceptible
Experimental: as §1

[12] = system: isolate B837; experiment: as above; assay type: cell-based, Staphylococcus pseudolugdunensis; also: key: R—resistant; S—susceptible
Experimental: as §1

[13] = system: 12 isolates; experiment: Disc diffusion antimicrobial susceptibility testing, all isolates; assay type: cell-based, Staphylococcus pseudolugdunensis
Experimental: as §1

[14] = system: isolates B230 and B333; experiment: Clinical case of intravenous line-associated infection; assay type: in vivo, human; conditions: patient with intravenous line-associated infection, line removed
Experimental: The relatedness of these 12 ODC/PYR-positive CoNS was further analyzed by pulsed field gel electrophoresis (PFGE). All isolates were unrelated, except for two isolates (B230 and B333) which were recovered from the same patient over a 16-day interval. […] Vancomycin was administered and the line removed.
Medical records of the 11 patients from whom these isolates were recovered were reviewed and the demographic and clinical information are listed in Table 3. Two isolates (B230 and B333), which were recovered from the same patient over a 16-day interval, were considered to be the pathogen that caused an intravenous line-associated infection. The remaining 10 isolates were considered to be contaminants. Antibiotics, including vancomycin, were administered in 6 (54.5%) cases, including one case in which the two isolates were considered pathogens and in 5 of 10 cases in which the isolates were considered contaminants (Table 3).

Compound | Antimicrobial susceptibility [1] | Antimicrobial susceptibility [2] | Antimicrobial susceptibility [3] | Antimicrobial susceptibility [4] | Antimicrobial susceptibility [5] | Antimicrobial susceptibility [6] | Antimicrobial susceptibility [7] | Antimicrobial susceptibility [8] | Antimicrobial susceptibility [9] | Antimicrobial susceptibility [10] | Antimicrobial susceptibility [11] | Antimicrobial susceptibility [12] | Susceptibility of all 12 isolates [13] | Patient outcome [14]
Cc1nnc(SCC2=C(C(=O)O)N3C(=O)[C@@H](NC(=O)Cn4cnnn4)[C@H]3SC2)s1 [Cefazolin] | R | S | S | S | S | S | S | R | S | R | R | R | – | –
CCC[C@@H]1C[C@@H](C(=O)N[C@@H]([C@H]2O[C@H](SC)[C@H](O)[C@@H](O)[C@H]2O)[C@H](C)Cl)N(C)C1 [Clindamycin] | S | S | S | S | S | S | R | R | S | S | R | R | – | –
CC[C@H]1OC(=O)[C@H](C)[C@@H](O[C@H]2C[C@@](C)(OC)[C@@H](O)[C@H](C)O2)[C@H](C)[C@@H](O[C@@H]2O[C@H](C)C[C@H](N(C)C)[C@H]2O)[C@](C)(O)C[C@@H](C)C(=O)[C@H](C)[C@@H](O)[C@]1(C)O [Erythromycin] | R | S | S | S | S | S | R | R | S | S | R | R | – | –
C[C@H]1COc2c(N3CCN(C)CC3)c(F)cc3c(=O)c(C(=O)O)cn1c23 [Levofloxacin] | S | S | R | S | R | S | S | R | S | R | S | S | – | –
COc1cccc(OC)c1C(=O)N[C@@H]1C(=O)N2[C@@H]1SC(C)(C)[C@@H]2C(=O)O [Methicillin] | R | S | S | S | S | S | S | R | S | R | R | R | – | –
CN(C)c1ccc(O)c2c1C[C@H]1C[C@H]3[C@H](N(C)C)C(O)=C(C(N)=O)C(=O)[C@@]3(O)C(O)=C1C2=O [Minocycline] | S | S | S | S | S | S | S | S | S | S | S | S | – | –
CO[C@H]1/C=C/O[C@@]2(C)Oc3c(C)c(O)c4c(O)c(c(/C=N/N5CCN(C)CC5)c(O)c4c3C2=O)NC(=O)/C(C)=C\C=C\[C@H](C)[C@H](O)[C@@H](C)[C@@H](O)[C@@H](C)[C@H](OC(C)=O)[C@@H]1C [Rifampin] | S | S | S | S | S | S | S | S | S | S | S | S | susceptible | –
CN[C@H](CC(C)C)C(=O)N[C@H]1C(=O)N[C@@H](CC(N)=O)C(=O)N[C@H]2C(=O)N[C@H]3C(=O)N[C@H](C(=O)N[C@H](C(=O)O)c4cc(O)cc(O)c4-c4cc3ccc4O)[C@H](O)c3ccc(c(Cl)c3)Oc3cc2cc(c3O[C@@H]2O[C@H](CO)[C@@H](O)[C@H](O)[C@H]2O[C@H]2C[C@](C)(N)[C@H](O)[C@H](C)O2)Oc2ccc(cc2Cl)[C@H]1O [Vancomycin] | S | S | S | S | S | S | S | S | S | S | S | S | susceptible | recovered fully
Amoxicillin-clavulanate | R | S | S | S | S | S | S | R | S | R | R | R | – | –
Gentamicin | S | S | S | S | S | S | S | S | S | S | S | S | susceptible | –
Penicillin | R | R | R | S | R | R | R | R | S | R | R | R | – | –
Trimethoprim/sulfamethoxazole | S | R | R | S | R | S | S | R | S | R | S | S | – | –
